In US20260242395A1, “AMINOHETEROARYL KINASE INHIBITORS” (ALLORION THERAPEUTICS INC, priority 2022, published 2026) one finds IC50 data, which are given here for eleven molecules.

In one test the target is T1, CDK6/CyclinD3 (Homo sapiens, UniProt Q00534).
T1 construct: purchased Carna 04-107
Nature of the test: CDK6/CyclinD3 kinase inhibitory activity (Caliper mobility shift). Type of test: biochemical. Conditions: enzyme 15 nM, ATP 800 μM, 28° C. 30 min; read-out: CDK6/Cyclin D3 IC50. The protocol:
CDK6/CyclinD3 kinase inhibitory activity (IC50): 5 μl of various dilutions of test compound in 1× kinase buffer (50 mM HEPES pH 7.5, 10 mM MgCl2, 2 mM DTT and 0.01% Brij-35) was mixed with 10 μL of CDK6/CyclinD3 (Carna, 04-107 #, final concentration 15 nM in 1× Kinase buffer) in 384 plates and incubated at room temperature for 10 min. To initiate each reaction, 10 μL of peptide solution containing fluorescently-labeled -peptide 8(5-FAM-IPTSPITTTYFFFKKK-COOH, GL, 112396 #, final concentration 3000 nM) and ATP (final concentration 800 μM for CDK6/CyclinD3 in 1× Kinase buffer was added to each of the wells containing test compound and CDK6/CyclinD3. The reaction is then allowed to proceed at 28° C. for 30 min and terminated by the addition of 25 μL stop buffer (100 mM HEPES pH 7.5, 50 mM EDTA, 0.2% Coating Reagent #3 (Perkin Elmer, 760050 #) and 0.015% Brij-35).
(§1) Following the kinase reaction, Caliper EZ reader II (Downstream voltages: −500V, Upstream voltages: −2250V, Base pressure −0.5 PSI, Screen pressure −1.2 PSI) was used to separate the phosphorylated (product) and the unphosphorylated (substrate) fluorescently-labeled peptide 8 based on their different mobility. Both substrate and product were measured and the ratio of these values were used to generate % conversion by Caliper EZ reader II. These conversion values were then transformed into % inhibition of kinase activity using the formula: % Inhibition=[(MA−X)/(MA−MI)]×100% where MA=conversion value of DMSO only controls, MI=conversion value of no enzyme controls and X=conversion value at any given compound dose. IC50 values were then calculated by plotting dose-response curves and then using the XLfit application in Excel software.

Another test concerns the target T2, CDK4/CyclinD1 (Homo sapiens, UniProt P11802).
T2 construct: purchased ProQinase 0142-0143-1
Briefly: CDK4/CyclinD1 kinase inhibitory activity (Caliper mobility shift). The conditions noted are these: enzyme 20 nM, ATP 672 uM, 28° C. 30 min; read-out: CDK4/Cyclin D1 IC50. Type of test: biochemical. The protocol:
CDK4/CyclinD1 kinase inhibitory activity (IC50): 5 μl of various dilutions of test compound in 1× kinase buffer (20 mM HEPES, pH 7.5, 10 mM MgCl2, 2 mM DTT and 0.01% Triton X-100) was mixed with 10 μL of either CDK4/Cyclin D1 (ProQinase, 0142-0143-1 #, final concentration 20 nM in 1× Kinase buffer) or in 384 plates and incubated at room temperature for 10 min. To initiate each reaction, 10 μL of peptide solution containing fluorescently-labeled-peptide 8(5-FAM-IPTSPITTTYFFFKKK-COOH, GL, 112396 #, final concentration 3000 nM) and ATP (final concentration 672 uM for CDK4/CyclinD1) in 1×Kinase buffer was added to each of the wells containing test compound and CDK4/CyclinD1 mixture. The reaction is then allowed to proceed at 28° C. for 30 min and terminated by the addition of 25 μL stop buffer (100 mM HEPES pH 7.5, 50 mM EDTA, 0.2% Coating Reagent #3 (Perkin Elmer, 760050 #) and 0.015% Brij-35).
as §1

T2 sequence (P11802 whole entry): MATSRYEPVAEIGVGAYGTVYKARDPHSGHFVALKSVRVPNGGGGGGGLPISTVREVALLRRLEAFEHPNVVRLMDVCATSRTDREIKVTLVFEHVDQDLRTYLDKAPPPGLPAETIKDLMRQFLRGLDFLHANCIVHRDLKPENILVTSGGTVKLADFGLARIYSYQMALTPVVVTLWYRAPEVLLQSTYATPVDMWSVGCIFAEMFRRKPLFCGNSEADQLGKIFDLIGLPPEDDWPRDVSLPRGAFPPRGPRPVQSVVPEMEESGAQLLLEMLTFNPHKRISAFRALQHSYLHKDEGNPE
T2 sequence (P24385 whole entry partner): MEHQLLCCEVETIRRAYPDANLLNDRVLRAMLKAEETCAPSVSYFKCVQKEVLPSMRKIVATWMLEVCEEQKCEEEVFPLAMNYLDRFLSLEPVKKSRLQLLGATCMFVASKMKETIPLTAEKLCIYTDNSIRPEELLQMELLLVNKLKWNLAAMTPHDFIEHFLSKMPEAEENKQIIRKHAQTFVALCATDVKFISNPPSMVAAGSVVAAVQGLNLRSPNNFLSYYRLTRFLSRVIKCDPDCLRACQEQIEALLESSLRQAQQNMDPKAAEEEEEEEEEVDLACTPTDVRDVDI
T1 sequence (Q00534 whole entry): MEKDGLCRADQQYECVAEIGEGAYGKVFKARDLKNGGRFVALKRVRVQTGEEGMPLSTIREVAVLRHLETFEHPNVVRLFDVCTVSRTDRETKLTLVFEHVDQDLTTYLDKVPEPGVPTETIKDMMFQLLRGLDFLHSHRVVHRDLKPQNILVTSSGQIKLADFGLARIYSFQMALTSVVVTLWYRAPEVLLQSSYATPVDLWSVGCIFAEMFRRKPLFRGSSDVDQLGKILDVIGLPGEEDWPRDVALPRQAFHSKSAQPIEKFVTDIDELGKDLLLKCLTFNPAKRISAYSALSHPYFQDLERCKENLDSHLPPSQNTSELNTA
T1 sequence (P30281 whole entry partner): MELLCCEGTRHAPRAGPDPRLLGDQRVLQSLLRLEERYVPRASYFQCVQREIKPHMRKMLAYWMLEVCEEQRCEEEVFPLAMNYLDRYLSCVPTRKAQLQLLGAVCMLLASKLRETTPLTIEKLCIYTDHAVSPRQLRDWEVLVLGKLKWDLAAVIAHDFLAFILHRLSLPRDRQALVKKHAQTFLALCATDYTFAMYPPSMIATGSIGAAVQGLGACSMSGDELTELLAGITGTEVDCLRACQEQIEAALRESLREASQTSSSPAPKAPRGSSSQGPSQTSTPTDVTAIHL

As for `CC(C)(O)c1cnc2c(F)cc(-c3cc(N[C@@H]4CCOC[C@H]4O)ncc3Cl)cc2c1Cl` [Example 42], the IC50 at CDK6/CyclinD3 was 100 to 1000 nM; on CDK4/CyclinD1 it was below 10 nM.
The like results for `CNC(C)c1cnc2c(F)cc(-c3nc(N[C@@H]4CCOC[C@H]4O)ncc3F)cc2c1Cl` (single isomer, unassigned) [Example 64a] were, in that order, 100 to 1000 nM and 10 to 100 nM.
In the case of `Cc1nc2c(F)cc(-c3nc(N[C@@H]4CCOC[C@H]4O)ncc3F)cc2cc1C(C)NC1CC1` (single isomer, unassigned) [Example 74b], the IC50 was 100 to 1000 nM on CDK6/CyclinD3 and below 10 nM on CDK4/CyclinD1.
For `COc1c(C(C)(C)O)cnc2c(F)cc(-c3nc(N[C@@H]4CCOC[C@H]4O)ncc3Cl)cc12` [Example 43], the results for the IC50 at CDK6/CyclinD3 and at CDK4/CyclinD1 were 100 to 1000 nM and below 10 nM, respectively.
For the molecule `[2H]c1nc2c(F)cc(-c3ccnc(N[C@@H]4CCOC[C@H]4O)n3)cc2c2c1CC(C)(C)NC2` [Example 101], the IC50 is 100 to 1000 nM on CDK6/CyclinD3 and below 10 nM at CDK4/CyclinD1.
The like results for `Cc1cc(C(C)(C)O)c2cc(-c3nc(N[C@@H]4CCOC[C@H]4O)ncc3Cl)cc(F)c2n1` [Example 75] were, in that order, 100 to 1000 nM and 10 to 100 nM.
The corresponding values for `Cc1nc2c(F)cc(-c3nc(N[C@@H]4CCOC[C@H]4O)ncc3F)cc2c2c1CC(C)(C)NC2` [Example 92] are 100 to 1000 nM and below 10 nM.
For `CC(C)(O)c1cnc2c(F)cc(-c3nc(N[C@@H]4CCOC[C@H]4O)ncc3Cl)cc2c1F` [Example 53], the IC50 was 100 to 1000 nM on CDK6/CyclinD3 and below 10 nM at CDK4/CyclinD1.
The corresponding values for `CNC(C)c1cnc2c(F)cc(-c3nc(N[C@@H]4CCOC[C@H]4O)ncc3Cl)cc2c1` (single isomer, unassigned) [Example 32b] are 100 to 1000 nM and 10 to 100 nM.
The corresponding values for `Cc1n[nH]c2cnc3ccc(-c4nc(N[C@@H]5CCOC[C@H]5O)ncc4Cl)cc3c12` [Example 11, (3S,4R)-4-((5-chloro-4-(1-methyl-3H-pyrazolo[3,4-c]quinolin-8-yl)pyrimidin-2-yl)amino)tetrahydro-2H-pyran-3-ol] are 100 to 1000 nM and 10 to 100 nM.
On to `CCc1c(C(C)(C)O)nnc2c(F)cc(-c3nc(N[C@@H]4CCOC[C@H]4O)ncc3Cl)cc12` [Example 61, (3S,4R)-4-((5-chloro-4-(4-ethyl-8-fluoro-3-(2-hydroxypropan-2-yl)cinnolin-6-yl)pyrimidin-2-yl)amino)tetrahydro-2H-pyran-3-ol], for which the IC50 on CDK6/CyclinD3 is 100 to 1000 nM; at CDK4/CyclinD1, 10 to 100 nM.
